In brackets after ≈: the same amount, converted by molar mass.
Key:
Assay type in all cases: cell-based
fresh morning saliva = experiment: In-vitro test for reducing bad breath (liquid medium inoculated with fresh morning saliva, smelt by a test panel); details: for formation of bad breath / smell after incubation: 0.1%
Experimental: This test is based on the work of Goldberg and Rosenberg (Production of Oral Malodor in an in vitro System, S. Goldberg and M. Rosenberg, pp. 143-150, in: Bad Breath—A multidisciplinary Approach, Eds: D. van Steenberghe, M. Rosenberg, Leuven University Press, 1996) and was adapted for the purposes of better reproducibility.
A sterile liquid medium that is inoculated with fresh morning saliva is incubated for a few days at 37° C. and then smelt by a test panel.
An intensive typical smell of bad breath had formed. Non-inoculated controls only have a weak to moderate smell of bad breath.
Triclosan® in a concentration of 0.05% was added as control for the tests.
The minimum effective concentrations of various compounds of the Formula 1 or of the Formula 1A at which no smell could be detected are shown hereinafter: […]

Escherichia coli = experiment: Effect against germs not connected with bad breath; details: 1,000 ppm
Candida albicans = experiment: Effect against germs not connected with bad breath; details: 1,000 ppm
Aspergillus niger = experiment: Effect against germs not connected with bad breath; details: 1,000 ppm
Prevotella intermedia = experiment: Minimal inhibiting concentration, series dilution test
Experimental: (§1) The minimal inhibiting concentration (MIC) was determined by way of example for 2-(benzoylamino) benzoic acid (Compound 27) in a series dilution test against various germs found in the mouth.

Staphylococcus aureus = experiment: as above; details: bactericide
Experimental: as §1

Fusobacterium nucleatum = experiment: as above
Experimental: as §1

Veillonella parvula = experiment: as above; details: bactericide
Experimental: as §1

[1] = medium inoculated with fresh morning saliva, incubated a few days at 37° C., test panel

| SMILES | minimum effective concentration at which no smell could be detected (fresh morning saliva; [1]) | further results |
| --- | --- | --- |
| O=C(/C=C/c1ccc(O)c(O)c1)Nc1ccccc1C(=O)O [Compound 2, 2-{[(2E)-3-(3,4-dihydroxyphenyl)prop-2-enoyl]amino}benzoic acid] | 0.005% | – |
| O=C(/C=C/c1ccc(O)c(O)c1)Nc1ccc(O)cc1C(=O)O [Compound 3, 5-hydroxy-2-{[(2E)-3-(3,4-dihydroxyphenyl)prop-2-enoyl]amino}benzoic acid] | 0.0025% | – |
| COc1cc(/C=C/C(=O)Nc2ccc(O)cc2C(=O)O)ccc1O [Compound 4, 5-hydroxy-2-{[(2E)-3-(4-hydroxy-3-methoxyphenyl)prop-2-enoyl]amino}benzoic acid] | 0.01% | minimum effective concentration at which no smell could be detected (fresh morning saliva; same value given in ppm): (=100 ppm) |
| O=C(/C=C/c1ccc(O)cc1)Nc1ccc(O)cc1C(=O)O [Compound 7, 5-hydroxy-2-{[(2E)-3-(4-hydroxyphenyl)prop-2-enoyl]amino}benzoic acid] | 0.005% | minimum effective concentration at which no smell could be detected (fresh morning saliva; same value given in ppm): (=50 ppm) |
| O=C(CCc1ccc(O)cc1)Nc1ccccc1C(=O)O [Compound 8, 2-{[3-(4-hydroxyphenyl)propanoyl]amino}benzoic acid] | 0.005% | – |
| COc1cc(/C=C/C(=O)Nc2ccccc2C(=O)O)ccc1O [Compound 9, 2-{[(2E)-3-(4-hydroxy-3-methoxyphenyl)prop-2-enoyl]amino}benzoic acid] | 0.005% | – |
| O=C(/C=C/c1ccc(O)cc1)Nc1ccccc1C(=O)O [Compound 10, 2-{[(2E)-3-(4-hydroxyphenyl)prop-2-enoyl]amino}benzoic acid] | 0.0025% | effect against the germ (Escherichia coli): did not have any effect; effect against the germ (Candida albicans): did not have any effect; minimum effective concentration at which no smell could be detected (fresh morning saliva; same value given in ppm): (=25 ppm); effect against the germ (Aspergillus niger): did not have any effect |
| O=C(/C=C/c1ccccc1)Nc1ccc(O)cc1C(=O)O [Compound 12, 5-Hydroxy-2-{[(2E)-3-phenylprop-2-enoyl]amino}benzoic acid] | 0.0025% | – |
| COc1ccc(/C=C/C(=O)Nc2ccc(O)cc2C(=O)O)cc1OC [Compound 13, 5-Hydroxy-2-{[(2E)-3-(3,4-dimethoxyphenyl)prop-2-enoyl]amino}benzoic acid] | 0.01% | – |
| O=C(Nc1ccccc1C(=O)O)c1ccc(O)c(O)c1 [Compound 20, 2-[(3,4-dihydroxybenzoyl)amino]benzoic acid] | 0.005% | – |
| COc1ccc(C(=O)Nc2ccccc2C(=O)O)cc1O [Compound 23, 2-[(3-hydroxy-4-methoxybenzoyl)amino]benzoic acid] | 0.0025% | – |
| O=C(Nc1ccccc1C(=O)O)c1ccc(O)cc1 [Compound 24, 2-[(4-hydroxybenzoyl)amino]benzoic acid] | 0.001% | – |
| COc1cc(C(=O)Nc2ccccc2C(=O)O)ccc1O [Compound 25, 2-[(4-hydroxy-3-methoxybenzoyl)amino]benzoic acid] | 0.001% | – |
| O=C(Nc1ccccc1C(=O)O)c1ccc(O)cc1O [Compound 26, 2-[(2,4-dihydroxybenzoyl)amino]benzoic acid] | 0.0025% | – |
| O=C(Nc1ccccc1C(=O)O)c1ccccc1 [Compound 27, 2-(benzoylamino)-benzoic acid] | 0.0025% | MIC (Prevotella intermedia; bactericide): 1000 µg/mL (≈ 4150 µM); MIC (Prevotella intermedia; bacteriostatic): 500 µg/mL (≈ 2070 µM); MIC (Staphylococcus aureus): 500 µg/mL (≈ 2070 µM); MIC (Fusobacterium nucleatum; bactericide): 1000 µg/mL (≈ 4150 µM); MIC (Fusobacterium nucleatum; bacteriostatic): 500 µg/mL (≈ 2070 µM); MIC (Veillonella parvula): 250 µg/mL (≈ 1040 µM); smell after incubation (fresh morning saliva; 0.001 wt. %): a non unpleasant smell could be detected, which did not bear any resemblance to bad breath; smell after incubation (fresh morning saliva; 0.0025 wt. %): no smell |
| O=C(Nc1ccccc1C(=O)O)c1cccc(O)c1 [Compound 28, 2-[(3-hydroxybenozyl)amino]benzoic acid] | 0.0005% | minimum effective concentration at which no smell could be detected (fresh morning saliva; same value given in ppm): (=5 ppm) |
| O=C(Nc1ccccc1C(=O)O)c1ccccc1O [Compound 29, 2-[(2-hydroxybenzoyl)amino]benzoic acid] | 0.0025% | – |
| O=C(Nc1cc(O)ccc1C(=O)O)c1ccc(O)cc1 [Compound 75, 4-hydroxy-2-[(4-hydroxybenzoyl]amino}benzoic acid] | 0.01% | – |
| O=C(Nc1ccccc1)c1ccccc1O [Compound 100, Salicylanilide] | 0.0025% | – |
| COc1ccc(/C=C/C(=O)Nc2ccccc2C(=O)O)cc1 [Compound 101, 2-{[(2E)-3-(4-methoxyphenyl)prop-2-enoyl]amino}benzoic acid] | 0.0025% | – |
| O=C(/C=C/c1ccccc1)Nc1ccccc1C(=O)O [Compound 102, 2-{[(2E)-3-phenylprop-2-enoyl]amino}benzoic acid] | 0.001% | minimum effective concentration at which no smell could be detected (fresh morning saliva; same value given in ppm): (=10 ppm) |
| Oc1cc(Cl)ccc1Oc1ccc(Cl)cc1Cl [Triclosan, reference compound] | – | smell after incubation (fresh morning saliva; 0.05%, control): the same smell as the non-inoculated flasks |
| C=CCc1ccc(O)c(OC)c1 [eugenol, reference compound] | – | formation of bad breath / smell after incubation (fresh morning saliva): suppressed the formation of bad breath |
| Cc1ccc(C(C)C)c(O)c1 [thymol, reference compound] | – | formation of bad breath / smell after incubation (fresh morning saliva): suppressed the formation of bad breath |

Source: patent publication US20080008660A1, “Antimicrobially active compounds for treating bad breath” (Symrise GmbH & Co. KG, priority 2006, published 2008)
